Measured values as given in patent publication US20150352108A1, “AMINO-PYRIMIDINE COMPOUNDS AS INHIBITORS OF TBK1 AND/OR IKK EPSILON” (Alzheimer's Institute of America, priority 2009, published 2015).

Tests used:
[1] = system: IKKε-mediated phosphorylation of IRF3; assay: In-situ phosphorylation of IRF3 (pIRF3 Ser396 ELISA) in HEK293T cells cotransfected with IRF3 and IKKε; type: cell-based; details: Homo sapiens, HEK-293T; HEK293T cells, 20 hours, text bins; read-out: IC50 for inhibition of the in-situ IKKε-mediated phosphorylation of IRF3
Experimental: HEK293T cells were cotransfected in a 10-cm dish with IRF3 and IKKε expression plasmids using Lipofectamine 2000 (Invitrogen, Carlsbad, Calif.). The following day, cells were replated at 20,000 per well in 96-well plates and treated with test compounds (compounds according to Formula I) for 20 hours. Cell lysates were prepared and analyzed using an ELISA for phospho-Ser396 (anti-IRF3 capture antibody, Santa Cruz Biotechnology, Inc., Santa Cruz, Calif.; anti-p-Ser396 IRF3 detection antibody, Cell Signaling, Danvers, Mass.). pIRF3 levels in compound treated cells were normalized to DMSO treated cells (no compound). Cell viability was assayed in a parallel set of plates to monitor cytotoxic effects of the test compounds (CellTiter-Glo, Promega, Inc., Madison, Wis.). TBK1 activity was tested by Western blotting using a phospho-specific IRF7 antibody. Similar to above, HEK293T cells were transfected with IRF7 and TBK1 expression plasmids. Cells were seeded in 12-well plates at 150,000 per well and treated overnight with test compounds. Protein lysates were prepared and processed for Western blotting followed by detection using a phosphor-Ser477/Ser479 IRF7 antibody (BD Biosciences, San Jose, Calif.)

[2] = target: T1, IKKε (Homo sapiens, UniProt Q14164); assay: In-vitro IKKε kinase assay ([γ33]ATP filter-plate); type: biochemical; details: text bins; read-out: IC50 for inhibition of the kinase activity of IKKε
T1 construct: His-tag; made in house; host or cells: Sf9 insect cells
T1 sequence (Q14164 1-716): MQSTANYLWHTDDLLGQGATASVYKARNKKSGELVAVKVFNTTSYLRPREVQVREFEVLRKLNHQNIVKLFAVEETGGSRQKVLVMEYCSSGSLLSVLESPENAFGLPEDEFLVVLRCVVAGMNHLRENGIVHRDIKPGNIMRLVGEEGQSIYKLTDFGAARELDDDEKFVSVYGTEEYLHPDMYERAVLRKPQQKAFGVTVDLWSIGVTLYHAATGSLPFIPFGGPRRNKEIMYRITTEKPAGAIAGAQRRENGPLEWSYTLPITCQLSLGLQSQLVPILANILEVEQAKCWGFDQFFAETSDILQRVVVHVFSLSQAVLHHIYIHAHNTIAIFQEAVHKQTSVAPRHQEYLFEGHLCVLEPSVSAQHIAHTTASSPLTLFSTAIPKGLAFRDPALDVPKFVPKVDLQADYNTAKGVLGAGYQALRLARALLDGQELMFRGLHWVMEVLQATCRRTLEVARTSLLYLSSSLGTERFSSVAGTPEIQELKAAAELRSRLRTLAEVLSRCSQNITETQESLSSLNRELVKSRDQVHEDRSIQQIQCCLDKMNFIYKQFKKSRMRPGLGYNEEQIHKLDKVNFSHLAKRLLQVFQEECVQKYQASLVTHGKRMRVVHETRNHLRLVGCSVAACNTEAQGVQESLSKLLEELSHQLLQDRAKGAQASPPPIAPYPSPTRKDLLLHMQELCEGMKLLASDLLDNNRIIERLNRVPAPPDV
Outline: (§1)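 His-tagged IKKε and TBK1 from Sf9 cells were assayed with myelin basic protein or casein and [γ33]ATP at 2×Km ATP (32 μM for IKKε, 60 μM for TBK1). Enzyme was 0.1 or 0.015 μg/ml for IKKε and 0.1 or 0.02 μg/ml for TBK1 (normal/sensitized). Reactions ran 30-45 min, were filter-captured, scintillation-counted, and normalized to DMSO after background subtraction.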

[3] = target: T2, TBK1 (Homo sapiens, UniProt Q9UHD2); assay: In-vitro TBK1 kinase assay ([γ33]ATP filter-plate); type: biochemical; details: text bins; read-out: IC50 for inhibition of the kinase activity of TBK1
T2 construct: His-tag; made in house; host or cells: Sf9 insect cells
T2 sequence (Q9UHD2 1-729): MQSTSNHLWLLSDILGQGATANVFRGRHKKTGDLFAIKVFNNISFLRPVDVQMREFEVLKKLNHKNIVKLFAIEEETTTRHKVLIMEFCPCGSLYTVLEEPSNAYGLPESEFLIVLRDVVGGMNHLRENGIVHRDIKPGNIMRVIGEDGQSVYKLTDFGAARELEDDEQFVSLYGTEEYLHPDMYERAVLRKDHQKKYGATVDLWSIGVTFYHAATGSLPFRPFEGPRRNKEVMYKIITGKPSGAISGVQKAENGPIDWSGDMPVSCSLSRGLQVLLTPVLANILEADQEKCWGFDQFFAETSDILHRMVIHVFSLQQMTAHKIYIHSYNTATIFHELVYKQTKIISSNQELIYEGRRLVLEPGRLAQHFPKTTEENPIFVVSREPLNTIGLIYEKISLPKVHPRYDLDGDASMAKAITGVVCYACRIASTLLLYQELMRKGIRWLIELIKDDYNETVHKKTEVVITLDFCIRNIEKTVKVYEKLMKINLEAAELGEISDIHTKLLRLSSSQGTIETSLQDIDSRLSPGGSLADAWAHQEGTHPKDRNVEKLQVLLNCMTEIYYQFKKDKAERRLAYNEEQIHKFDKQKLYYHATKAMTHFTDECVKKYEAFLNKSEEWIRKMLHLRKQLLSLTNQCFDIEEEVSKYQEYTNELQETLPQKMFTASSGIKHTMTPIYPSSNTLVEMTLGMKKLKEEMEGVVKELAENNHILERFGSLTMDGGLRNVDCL
Outline: as §1

SMILES	IC50 [1]	IC50 [2]	IC50 [3]
N#Cc1cc(-c2ccnc(Nc3ccc(F)c(OCC4COCCN4)c3)n2)ccc1OC1CCOCC1 (centres unmarked) [compound 545]	250 to 500 nM	< 5 nM	–
N#Cc1cc(-c2ccnc(Nc3ccc(F)c(OC4CCNC4)c3)n2)ccc1OC1CCOCC1 (centres unmarked) [compound 541, 5-(2-{[4-Fluoro-3-(pyrrolidin-3-yloxy)phenyl]amino}pyrimidin-4-yl)-2-(tetrahydro-2H-pyran-4-yloxy)benzonitrile]	100 to 250 nM	< 5 nM	–
C[C@H](O)C(=O)N1CCC(Oc2ccc(-c3ccnc(Nc4ccc(F)c(OCCN)c4)n3)cc2C#N)CC1 [compound 655]	250 to 500 nM	< 5 nM	–
COc1cc(Nc2nccc(-c3ccc(OCC(C)C)c(C#N)c3)n2)ccc1CN1CC(OC)C1 [compound 600, 5-[2-({3-Methoxy-4-[(3-methoxyazetidin-1-yl)methyl]phenyl}amino)pyrimidin-4-yl]-2-(2-methylpropoxy) benzonitrile]	100 to 250 nM	5 to 50 nM	–
CC(=O)Nc1cccc(Nc2nccc(-c3ccc(OC4CCOCC4)c(C#N)c3)n2)c1 [compound 656, N-[3-({4-[3-Cyano-4-(tetrahydro-2H-pyran-4-yloxy)phenyl]pyrimidin-2-yl}amino)phenyl] acetamide]	< 100 nM	< 5 nM	–
CN(C)CCN(C)c1cccc(Nc2nccc(-c3ccc(OC4CCOCC4)c(C#N)c3)n2)c1 [compound 661]	< 100 nM	< 5 nM	–
CC(C)COc1ccc(-c2ccnc(Nc3ccc(N4CCN(CCO)CC4)cc3)n2)cc1C#N [compound 442, 5-[2-({4-[4-(2-Hydroxyethyl)piperazin-1-yl]phenyl}amino)pyrimidin-4-yl]-2-(2-methylpropoxy) benzonitrile]	< 100 nM	< 5 nM	–
COc1ccc(Nc2nccc(-c3ccc(OC(C)C)c(C#N)c3)n2)cc1OC [Example 111, 5-{2-[(3,4-Dimethoxyphenyl)amino]pyrimidin-4-yl}-2-(propan-2-yloxy)benzonitrile]	–	< 5 nM	< 10 nM
COc1ccc(-c2ccnc(Nc3ccc(N4CCS(=O)(=O)CC4)cc3)n2)cc1C#N [compound 313]	–	5 to 50 nM	10 to 100 nM
COc1ccc(Nc2nccc(-c3ccc(C)c(C#N)c3)n2)cc1OC [Example 85, 5-{2-[(3,4-Dimethoxyphenyl)amino]pyrimidin-4-yl}-2-methylbenzonitrile]	–	5 to 50 nM	10 to 100 nM

Now from value to compound:

IC50 [1]	IC50 [2]	IC50 [3]	SMILES
250 to 500 nM	< 5 nM	–	COC1CN(Cc2ccc(Nc3nccc(-c4ccc(O[C@@H]5CCN(C(=O)CO)C5)c(C#N)c4)n3)cc2)C1 [compound 658, 2-{[(3R)-1-(Hydroxyacetyl)pyrrolidin-3-yl]oxy}-5-[2-({4-[(3-methoxyazetidin-1-yl)methyl]phenyl}amino)pyrimidin-4-yl]benzonitrile]
< 100 nM	< 5 nM	–	CN(C)CCNc1cccc(Nc2nccc(-c3ccc(OC4CCOCC4)c(C#N)c3)n2)c1 [compound 540, 5-{2-[(3-{[2-(Dimethylamino)ethyl]amino}phenyl)amino]pyrimidin-4-yl}-2-(tetrahydro-2H-pyran-4-yloxy)benzonitrile]
250 to 500 nM	< 5 nM	–	COC1CN(C(=O)Nc2cccc(Nc3nccc(-c4ccc(OC5CCOCC5)c(C#N)c4)n3)c2)C1 [compound 668, N-[3-({4-[3-Cyano-4-(tetrahydro-2H-pyran-4-yloxy)phenyl]pyrimidin-2-yl}amino)phenyl]-3-methoxyazetidine-1-carboxamide]
< 100 nM	< 5 nM	–	COc1cc(Nc2ncc(F)c(-c3ccc(O[C@@H]4CCN(C(=O)CO)C4)c(C#N)c3)n2)ccc1N1CCOCC1 [compound 552, 5-(5-Fluoro-2-{[3-methoxy-4-(morpholin-4-yl)phenyl]amino}pyrimidin-4-yl)-2-{[(3R)-1-(hydroxyacetyl)pyrrolidin-3-yl]oxy}benzonitrile]
250 to 500 nM	< 5 nM	–	CCc1cccc(Nc2nccc(-c3ccc(O[C@@H]4CCN(C(=O)CO)C4)c(C#N)c3)n2)c1 [compound 544, 5-{2-[(3-Ethylphenyl)amino]pyrimidin-4-yl}-2-{[(3R)-1-(hydroxyacetyl)pyrrolidin-3-yl]oxy}benzonitrile]
< 100 nM	< 5 nM	–	N#Cc1cc(-c2ccnc(Nc3ccc(N4CCN(CCO)CC4)cc3)n2)ccc1OC1CCOCC1 [compound 512, 5-[2-({4-[4-(2-hydroxyethyl)piperazin-1-yl]phenyl}amino)pyrimidin-4-yl]-2-(tetrahydro-2H-pyran-4-yloxy)benzonitrile]
100 to 250 nM	< 5 nM	–	N#Cc1cc(-c2ccnc(Nc3cccc(N4CCC[C@H]4CO)c3)n2)ccc1O[C@@H]1CCN(C(=O)CO)C1 [compound 669, 2-{[(3R)-1-(Hydroxyacetyl)pyrrolidin-3-yl]oxy}-5-[2-({3-[(2S)-2-(hydrfoxymethyl)pyrrolidin-1-yl]phenyl}amino)pyrimidin-4-yl]benzonitrile]
< 100 nM	< 5 nM	–	N#Cc1cc(-c2ccnc(Nc3cccc(CN4CCOCC4)c3)n2)ccc1OC1CCOCC1 [compound 638, 5-(2-{[3-(Morpholin-4-ylmethyl)phenyl]amino}pyrimidin-4-yl)-2-(tetrahydro-2H-pyran-4-yloxy)benzonitrile]
< 100 nM	< 5 nM	–	CN(C)Cc1cccc(Nc2nccc(-c3ccc(OC4CCOCC4)c(C#N)c3)n2)c1 [compound 548, 5-[2-({3-[(Dimethylamino)methyl]phenyl}amino)pyrimidin-4-yl]-2-(tetrahydro-2H-pyran-4-yloxy)benzonitrile]
250 to 500 nM	< 5 nM	–	CCN(CC)CCOc1cc(Nc2nccc(-c3ccc(OCC4CC4)c(C#N)c3)n2)ccc1F [compound 535, 2-(Cyclopropylmethoxy)-5-[2-({3-[2-(diethylamino)ethoxy]-4-fluorophenyl}amino)pyrimidin-4-yl]benzonitrile]
< 100 nM	< 5 nM	–	N#Cc1cc(-c2ccnc(Nc3ccc(Cn4cnnn4)cc3)n2)ccc1OC1CCOCC1 [compound 629, 2-(Tetrahydro-2H-pyran-4-yloxy)-5-(2-{[4-(1H-tetrazol-1-ylmethyl)phenyl]amino}pyrimidin-4-yl)benzonitrile]
250 to 500 nM	< 5 nM	–	N#Cc1cc(-c2ccnc(Nc3ccc(F)c(OC4CCNC4)c3)n2)ccc1OCC1CC1 (centres unmarked) [compound 670, 2-(Cyclopropyl-methoxy)-5-(2-{[4-fluoro-3-(pyrrolidin-3-yloxy)phenyl]amino}pyrimidin-4-yl)benzonitrile]
